According to patent publication US9908912B2, “Triclosan derivatives and uses thereof” (priority 2012, dated 2018):
≈ marks a conversion by molar mass, not a printed value.

Legend:
Ent. faecium = test: MIC in Nutrient Agar; assay type: cell-based, Enterococcus faecium; details: Nutrient Agar containing 0.1 μg/ml of inducer; 37° C., 24 hours
Experimental: (§1) The triclosan-glycosides were added to Nutrient Agar (Oxoid CM0003; Thermofisher Scientific) and organisms were transferred onto the plates surface using a multi-point inoculation device (Oxoid Cathra, Thermofisher Scientific). The latter is essentially a metal plate containing a number of needles. Each needle tip (usually 36 per plate) dips into an organism suspension (in phosphate buffered saline; PBS) and the needles are then moved over the agar plate and lowered onto its surface. In this way the growth of colonies of up to 36 different organisms can be observed on one plate.
(§2) Nutrient Agar No. 2 was prepared according to the manufacturers instructions, autoclaved and cooled to 50° C. Test compounds were then added as filter sterilised solutions (50:50 deionised water:ethanol), to give final concentrations from 256 μg/ml to 0 μg/ml in doubling dilutions. […] The mixtures were swirled then four plates (25 ml molten agar) were poured for each concentration. Plates were dried in a laminar flow cabinet then inoculated with overnight cultures of organisms that had been decimally diluted twice in sterile saline solution (approximately 10^7 cfu/ml) using a multi-point inoculator. Plates were then incubated at 37° C. for 24 hours. MICs were determined as the concentration at which no growth was observed.

E. hermanii ATCC 33650 = test: MIC in Nutrient Broth No. 2; assay type: cell-based, Escherichia hermanii; details: Nutrient Broth No. 2
Experimental: (§3) Bacteria species as indicated in Table 1 were incubated for approximately 24 hours at 37° C.
(§4) The tests were repeated with the addition of inducers. Methyl glycoside was the main inducer used, but other suitable inducers include isopropyl-β-D-thiogalactopyranoside, p-nitrophenyl-α-L-arabinopyranoside and p-nitrophenyl-β-D-xylopyranoside. Concentration of inducer in all cases was 100 μg/ml.

S. haemolyticus = test: MIC in Nutrient Agar; assay type: cell-based, Staphylococcus haemolyticus; details: Nutrient Agar containing 0.1 μg/ml of inducer; 37° C., 24 hours
Experimental: as §1, §2

Bacillus subtilis = test: MIC in Nutrient Agar; assay type: cell-based; details: Nutrient Agar containing 0.1 μg/ml of inducer; 37° C., 24 hours
Experimental: as §1, §2

Hafnia alvei = test: MIC in Nutrient Agar; assay type: cell-based; details: Nutrient Agar containing 0.1 μg/ml of inducer; 37° C., 24 hours
Experimental: as §1, §2

Bacillus cereus = test: MIC in Nutrient Agar; assay type: cell-based; details: Nutrient Agar containing 0.1 μg/ml of inducer; 37° C., 24 hours
Experimental: as §1, §2

Salmonella = test: MIC in Nutrient Agar; assay type: cell-based; details: 11 strains; Nutrient Agar containing 0.1 μg/ml of inducer; 37° C., 24 hours
Experimental: as §1, §2

Ps. aeruginosa = test: MIC in Nutrient Agar; assay type: cell-based; details: Nutrient Agar containing 0.1 μg/ml of inducer; 37° C., 24 hours
Experimental: as §1, §2

S. aureus = test: MIC in Nutrient Agar; assay type: cell-based, Staphylococcus aureus; details: 8 strains; Nutrient Agar containing 0.1 μg/ml of inducer; 37° C., 24 hours
Experimental: as §1, §2

S. saprophyticus = test: MIC in Nutrient Agar; assay type: cell-based, Staphylococcus saprophyticus; details: Nutrient Agar containing 0.1 μg/ml of inducer; 37° C., 24 hours
Experimental: as §1, §2

Str. pneumoniae = test: MIC in Nutrient Agar; assay type: cell-based, Streptococcus pneumoniae; details: Nutrient Agar containing 0.1 μg/ml of inducer; 37° C., 24 hours
Experimental: as §1, §2

Ser. marcescens = test: MIC in Nutrient Agar; assay type: cell-based, Serratia marcescens; details: Nutrient Agar containing 0.1 μg/ml of inducer; 37° C., 24 hours
Experimental: as §1, §2

Strep. viridans OCC 234 = test: MIC in Nutrient Broth No. 2; assay type: cell-based, Streptococcus viridans; details: Nutrient Broth No. 2
Experimental: as §3, §4

Str. viridans = test: MIC in Nutrient Agar; assay type: cell-based, Streptococcus viridans; details: Nutrient Agar containing 0.1 μg/ml of inducer; 37° C., 24 hours
Experimental: as §1, §2

Kleb. pneumoniae = test: MIC in Nutrient Agar; assay type: cell-based, Klebsiella pneumoniae; details: Nutrient Agar containing 0.1 μg/ml of inducer; 37° C., 24 hours
Experimental: as §1, §2

[1] = test system: Staph. saprophyticus ATCC 15305; test: MIC in Nutrient Broth No. 2; assay type: cell-based, Staphylococcus saprophyticus; details: Nutrient Broth No. 2
Experimental: as §3, §4

Staph. aureus = test: MIC in Nutrient Broth No. 2; assay type: cell-based, Staphylococcus aureus; details: 8 strains, Nutrient Broth No. 2
Experimental: as §3, §4

[2] = test system: Kleb. pneumoniae ATCC 10031; test: MIC in Nutrient Broth No. 2; assay type: cell-based, Klebsiella pneumoniae; details: Nutrient Broth No. 2
Experimental: as §3, §4

[3] = test system: Strep. pneumoniae ATCC 6305; test: MIC in Nutrient Broth No. 2; assay type: cell-based, Streptococcus pneumoniae; details: Nutrient Broth No. 2
Experimental: as §3, §4

Ent. cloacae ATCC 13047 = test: MIC in Nutrient Broth No. 2; assay type: cell-based, Enterobacter cloacae; details: Nutrient Broth No. 2
Experimental: as §3, §4

Kleb. aerogenes = test: MIC in Nutrient Agar; assay type: cell-based, Klebsiella aerogenes; details: Nutrient Agar containing 0.1 μg/ml of inducer; 37° C., 24 hours
Experimental: as §1, §2

[4] = test system: Strep. pyogenes ATCC 19615; test: MIC in Nutrient Broth No. 2; assay type: cell-based, Streptococcus pyogenes; details: Nutrient Broth No. 2
Experimental: as §3, §4

Ent. cloacae = test: MIC in Nutrient Agar; assay type: cell-based, Enterobacter cloacae; details: Nutrient Agar containing 0.1 μg/ml of inducer; 37° C., 24 hours
Experimental: as §1, §2

[5] = test system: Staph. haemolyticus OCC 2223; test: MIC in Nutrient Broth No. 2; assay type: cell-based, Staphylococcus haemolyticus; details: Nutrient Broth No. 2
Experimental: as §3, §4

C. freundii = test: MIC in Nutrient Agar; assay type: cell-based, Citrobacter freundii; details: Nutrient Agar containing 0.1 μg/ml of inducer; 37° C., 24 hours
Experimental: as §1, §2

Cr. sakazakii = test: MIC in Nutrient Agar; assay type: cell-based, Cronobacter sakazakii; details: Nutrient Agar containing 0.1 μg/ml of inducer; 37° C., 24 hours
Experimental: as §1, §2

[6] = test system: Strep. agalactiae OCC 182; test: MIC in Nutrient Broth No. 2; assay type: cell-based, Streptococcus agalactiae; details: Nutrient Broth No. 2
Experimental: as §3, §4

[7] = test system: Crono. sakazakii ATCC 29544; test: MIC in Nutrient Broth No. 2; assay type: cell-based, Cronobacter sakazakii; details: Nutrient Broth No. 2
Experimental: as §3, §4

Ent. aerogenes = test: MIC in Nutrient Agar; assay type: cell-based, Enterobacter aerogenes; details: Nutrient Agar containing 0.1 μg/ml of inducer; 37° C., 24 hours
Experimental: as §1, §2

Aer. hydrophila = test: MIC in Nutrient Agar; assay type: cell-based, Aeromonas hydrophila; details: Nutrient Agar containing 0.1 μg/ml of inducer; 37° C., 24 hours
Experimental: as §1, §2

Str. agalactiae = test: MIC in Nutrient Agar; assay type: cell-based, Streptococcus agalactiae; details: Nutrient Agar containing 0.1 μg/ml of inducer; 37° C., 24 hours
Experimental: as §1, §2

[8] = test system: Kleb. aerogenes NCTC 88167; test: MIC in Nutrient Broth No. 2; assay type: cell-based, Klebsiella aerogenes; details: Nutrient Broth No. 2
Experimental: as §3, §4

Ent. faecalis = test: MIC in Nutrient Agar; assay type: cell-based, Enterococcus faecalis; details: Nutrient Agar containing 0.1 μg/ml of inducer; 37° C., 24 hours
Experimental: as §1, §2

OC[C@H]1O[C@H](Oc2cc(Cl)ccc2Oc2ccc(Cl)cc2Cl)[C@@H](O)[C@@H](O)[C@@H]1O [α-D-Mannoside, triclosan-α-D-mannopyranoside]
MIC (Ent. faecium): 256 µg/mL (≈ 567 µM) | MIC (E. hermanii ATCC 33650; with inducer 100 μg/ml): 8 µg/mL (≈ 17.7 µM) | MIC (E. hermanii ATCC 33650; without inducer): 16 µg/mL (≈ 35.4 µM) | MIC (S. haemolyticus): 8 µg/mL (≈ 17.7 µM) | MIC (Bacillus subtilis): 256 µg/mL (≈ 567 µM) | MIC (Hafnia alvei): 4 µg/mL (≈ 8.86 µM) | MIC (Bacillus cereus): 128 µg/mL (≈ 283 µM) | MIC (Salmonella): 16 to 32 µg/mL | MIC (Ps. aeruginosa): >256 µg/mL | MIC (S. aureus): 4 to 8 µg/mL | MIC (S. saprophyticus): 32 µg/mL (≈ 70.8 µM) | MIC (Str. pneumoniae): 64 µg/mL (≈ 142 µM) | MIC (Ser. marcescens): >256 µg/mL | MIC (Strep. viridans OCC 234; with inducer 100 μg/ml): 128 µg/mL (≈ 283 µM) | MIC (Strep. viridans OCC 234; without inducer): 128 µg/mL (≈ 283 µM) | MIC (Str. viridans): 128 µg/mL (≈ 283 µM) | MIC (Kleb. pneumoniae): 16 µg/mL (≈ 35.4 µM) | MIC ([1]; with inducer 100 μg/ml): 32 µg/mL (≈ 70.8 µM) | MIC ([1]; without inducer): 32 µg/mL (≈ 70.8 µM) | MIC (Staph. aureus; with inducer 100 μg/ml): 2 to 8 µg/mL | MIC (Staph. aureus; without inducer): 2 to 8 µg/mL | MIC ([2]; with inducer 100 μg/ml): 2 µg/mL (≈ 4.43 µM) | MIC ([2]; without inducer): 4 µg/mL (≈ 8.86 µM) | MIC ([3]; with inducer 100 μg/ml): 128 µg/mL (≈ 283 µM) | MIC ([3]; without inducer): 64 µg/mL (≈ 142 µM) | MIC (Ent. cloacae ATCC 13047; with inducer 100 μg/ml): 8 µg/mL (≈ 17.7 µM) | MIC (Ent. cloacae ATCC 13047; without inducer): 8 µg/mL (≈ 17.7 µM) | MIC (Kleb. aerogenes): 32 µg/mL (≈ 70.8 µM) | MIC ([4]; with inducer 100 μg/ml): 32 µg/mL (≈ 70.8 µM) | MIC ([4]; without inducer): 32 µg/mL (≈ 70.8 µM) | MIC (Ent. cloacae): 16 µg/mL (≈ 35.4 µM) | MIC ([5]; with inducer 100 μg/ml): 8 µg/mL (≈ 17.7 µM) | MIC ([5]; without inducer): 8 µg/mL (≈ 17.7 µM) | MIC (C. freundii): 64 µg/mL (≈ 142 µM) | MIC (Cr. sakazakii): 64 µg/mL (≈ 142 µM) | MIC ([6]; with inducer 100 μg/ml): 128 µg/mL (≈ 283 µM) | MIC ([6]; without inducer): 128 µg/mL (≈ 283 µM) | MIC ([7]; with inducer 100 μg/ml): 32 µg/mL (≈ 70.8 µM) | MIC ([7]; without inducer): 128 µg/mL (≈ 283 µM) | MIC (Ent. aerogenes): 64 µg/mL (≈ 142 µM) | MIC (Aer. hydrophila): 256 µg/mL (≈ 567 µM) | MIC (Str. agalactiae): 128 µg/mL (≈ 283 µM) | MIC ([8]; with inducer 100 μg/ml): 32 µg/mL (≈ 70.8 µM) | MIC ([8]; without inducer): 32 µg/mL (≈ 70.8 µM) | MIC (Ent. faecalis): 256 µg/mL (≈ 567 µM)
